Here are results for two compounds from patent EP0641569A1, “ANTIPRURITIC” (ONO PHARMACEUTICAL CO., LTD., priority 1992, dated 1993).

In one data set the test system is patients in hemodialysis. Briefly: Treatment for pruritus cutanea in hemodialysis (improvement score of itching and rash). It counts as in vivo, human. Conditions: for improvement in itching: four patients in hemodialysis with severe itching, no effect with other agents, hydrate. On the procedure:
8-[p-(4-phenylbutoxy)benzoyl]amino-2-(tetrazol-5-yl)-4-oxo-4H-1-benzopyran·1/2 hydrate (abbreviated as "Compound A" hereafter) were administered at the dose of 225 mg or 450 mg per day to four patients in hemodialysis (dialyzed for 3 to 11 years) who have severe itching and show no effect with other agents [no effect even with antihistamine, azerastin (anti-allergy agent already on the market) and steroid ointment]. The evaluation was carried out by improvement score of subjective symptom according to "The Standard of degree of Itching" and of rash (judged by slide).

Another data set in a line: Acute toxicity in mice. Conditions: Jcl-ICR, mouse, in vivo, read-out: LD₅₀. On the procedure:
(§1) Compound A was orally or subcutaneously administered to each ten male and female 6-weeks aged Jcl-ICR mice and Jcl-SD rats, respectively per group. Two groups of Compound A (1000 and 2000 mg/kg) were used by suspending into 0.5% carboxymethyl cellulose (CMC) aqueous solution at the concentration of 100 mg/ml.

A short description of another data set: Acute toxicity in rats. The note with it: Jcl-SD, rat, in vivo, read-out: LD₅₀. As to the method: as §1
[1] abbreviates: 225 mg or 450 mg per day, four patients in hemodialysis.

For the compound `O=C(Nc1cccc2c(=O)cc(-c3nnn[nH]3)oc12)c1ccc(OCCCCc2ccccc2)cc1` [Compound A, 8-[p-(4-phenylbutoxy)benzoyl]amino-2-(tetrazol-5-yl)-4-oxo-4H-1-benzopyran·1/2 hydrate], the side effect entry in the data set with patients in hemodialysis (setting [1]) is “no side effect”. The “subjective symptom and objective symptom (rash), daytime and nighttime” value in the data set on patients in hemodialysis (setting [1]) is “Improvement was shown”. Also, the improvement in itching entry is reported as “became better” in the data set with patients in hemodialysis (225 mg or 450 mg per day) and “Remarkable improvement” in the data set on patients in hemodialysis (225 mg or 450 mg per day, listed as 8-[p-(4-phenylbutoxy)benzoyl]amino-2-(tetrazol-5-yl)-4-oxo-4H-1-benzopyran semih). Also, the LD50 was more than 2000 mg/kg in the data set “Acute toxicity in mice” (po, orally, female); more than 2000 mg/kg in the data set “Acute toxicity in mice” (po, orally, male); more than 2000 mg/kg in the data set “Acute toxicity in mice” (sc, subcutaneously, female); more than 2000 mg/kg in “Acute toxicity in mice” (sc, subcutaneously, male); more than 2000 mg/kg in “Acute toxicity in rats” (po, orally, female); more than 2000 mg/kg in “Acute toxicity in rats” (po, orally, male). Moreover, the LD50 is more than 2000 mg/kg in the data set “Acute toxicity in rats” (sc, subcutaneously, female) and more than 2000 mg/kg in the data set “Acute toxicity in rats” (sc, subcutaneously, male).
With `CN1CCCC(n2nc(Cc3ccc(Cl)cc3)c3ccccc3c2=O)CC1` (stereo not shown) [azerastin, reference compound], the effect on itching result with patients in hemodialysis (earlier treatment of the same four patients with other agents) was “no effect”.
